Measurements reported in patent US11672817B2, “Maltosyl-Isomaltooligosaccharides” (ISOThrive Inc., priority 2016, dated 2023).
No end group written: not given here.

Assays:
[1] = system: Weissella viridescens NRRL B-1951; assay: W. viridescens culture absorbance (growth) with nisin; type: cell-based; set-up: key to Corrected ABS 610rs: A600 minus background absorbance taken just after inoculation; conditions: for 91516 ABS 610f: final absorbance, uncorrected
Method: Purified nisin A and Z are commercially available and were acquired from Handary S. A. (Brussels Belgium). Certificates of analysis for each lot indicated purities of 95.2 and 99.6% for nisin A and Z, respectively.
100 g De-Man, Rogosa and Sharpe (MRS) media was prepared in a 500 mL Erlenmeyer to contain 5.5% solids in deionized water (18.2 MS2, Hydro Service and Supplies, Gaithersburg, Md.). The media was autoclaved (121° C. 15 min), cooled, and inoculated with 1 mL (0.5 mL culture+0.5 mL glycerol, 40%; frozen at −78° C.) of Weissella viridescens NRRL B-1951 (test strain). The culture was incubated at 31° C. overnight (15 Hr).
The next day, stock solutions of either nisin A or Z were prepared in deionized water to contain 31.3 and 33.7 μg/g of each peptide.
(§1) 100 g MRS media was prepared to contain 5.5% solids. Two sets (one set each for nisin A and nisin Z) of eight Hach-type tubes (Kimble Chase 45066-16100) were prepared. Within each set, in order was added 5.00, 4.95, 4.90, 4.75, 4.50, 4.00, 3.50 and 3.00 g MRS media. The tubes were sealed and autoclaved.
(§2) To each tube was added, of the appropriate nisin stock, 0.00, 0.05, 0.10, 0.25, 0.50, 1.00, 1.50, and 2.00 g. Each tube was inoculated with 0.25 g of late-log W. viridescens NRRL B-1951 culture. The tubes were sealed and the absorbance at 600 nm was quickly measured (Hach DR900). The tubes were segregated by set and incubated at 31° C. overnight (15 Hr).
Each tube was thoroughly mixed to suspend settled cells and the absorbance was measured again at 600 nm. The final absorbance values for each sample were corrected for their respective background (taken just after inoculation, scattered light from added cells). The corrected absorption values were a measure of W. viridescens growth. The corrected values were plotted against nisin concentration and minimum inhibiting concentration approximated via regression.

[2] = system: Weissella viridescens NRRL B-1951; assay: HPLC of culture supernatants: consumption of glucose and production of organic acids with nisin; type: cell-based; conditions: for acetic acid in the fermentation media: MRS media originally contained 7% acetate
Method: as §1, §2
Each tube was sampled (1.5 mL conical polypropylene centrifuge tubes) and centrifuged at 10 kRPM for 10 minutes to remove and suspended cells. The resulting supernatants were filtered (0.2 μm nylon), diluted to 0.5% solids, and analyzed by high pressure liquid chromatography (HPLC, Agilent 1100, refractive index detector and BioRad Ainex HPX-87H column) for consumption of glucose and production of organic acids. The following table illustrates the concentration of sugars such as glucose and production of organic acids during the incubation.
Note that the MRS media originally contained 7% acetate; therefore 7% should be subtracted from the values for acetate in the above table to ascertain the amount of acetate generated during the assay.

nisin Z (ITSISLCTPGCKTGALMGCNMKTATCNCSIHVSK; not fully specified (residues 2, 5, 33, bridges); also: lantibiotic (thioether rings, dehydrated residues not placed); UniProt P13068 24-57, looked up, variant H27N) [Purified nisin Z, commercially available, acquired from Handary S. A; purity 99.6%; bacteriocin peptide]
inhibition of bacterial growth [1]: can effectively inhibit
91516 ABS 610f ([1]; nisin Z 0.34 μg/g (tube Z2)): 1.618
91516 ABS 610f ([1]; nisin Z 0.77 μg/g (tube Z3)): 1.526
91516 ABS 610f ([1]; nisin Z 1.58 μg/g (tube Z4)): 1.296
91516 ABS 610f ([1]; nisin Z 3.19 μg/g (tube Z5)): 0.801
91516 ABS 610f ([1]; nisin Z 6.31 μg/g (tube Z6)): 0.426
91516 ABS 610f ([1]; nisin Z 9.54 μg/g (tube Z7)): 0.384
91516 ABS 610f ([1]; nisin Z 12.61 μg/g (tube Z8)): 0.386
Corrected ABS 610rs ([1]; nisin Z 0.34 μg/g (tube Z2)): 1.146
Corrected ABS 610rs ([1]; nisin Z 0.77 μg/g (tube Z3)): 1.062
Corrected ABS 610rs ([1]; nisin Z 1.58 μg/g (tube Z4)): 0.841
Corrected ABS 610rs ([1]; nisin Z 3.19 μg/g (tube Z5)): 0.359
Corrected ABS 610rs ([1]; nisin Z 6.31 μg/g (tube Z6)): 0.003
Corrected ABS 610rs ([1]; nisin Z 9.54 μg/g (tube Z7)): 0.001
Corrected ABS 610rs ([1]; nisin Z 12.61 μg/g (tube Z8)): 0.001
Maltotriose in the fermentation media ([2]; nisin Z 0.34 μg/g (tube Z2)): 0.282 %/brix
ethanol in the fermentation media ([2]; nisin Z 0.34 μg/g (tube Z2)): 0.057 %/brix
formic acid in the fermentation media ([2]; nisin Z 0.34 μg/g (tube Z2)): 0.303 %/brix
fructose in the fermentation media ([2]; nisin Z 0.34 μg/g (tube Z2)): 0.000 %/brix
glucose in the fermentation media ([2]; nisin Z 0.34 μg/g (tube Z2)): 22.988 %/brix
glycerol in the fermentation media ([2]; nisin Z 0.34 μg/g (tube Z2)): 0.343 %/brix
lactic acid in the fermentation media ([2]; nisin Z 0.34 μg/g (tube Z2)): 6.742 %/brix
maltose in the fermentation media ([2]; nisin Z 0.34 μg/g (tube Z2)): 0.722 %/brix
acetic acid in the fermentation media ([2]; nisin Z 0.34 μg/g (tube Z2)): 8.273 %/brix
Maltotriose in the fermentation media ([2]; nisin Z 1.58 μg/g (tube Z4)): 0.265 %/brix
ethanol in the fermentation media ([2]; nisin Z 1.58 μg/g (tube Z4)): 0.083 %/brix
formic acid in the fermentation media ([2]; nisin Z 1.58 μg/g (tube Z4)): 0.309 %/brix
fructose in the fermentation media ([2]; nisin Z 1.58 μg/g (tube Z4)): 0.000 %/brix
glucose in the fermentation media ([2]; nisin Z 1.58 μg/g (tube Z4)): 24.153 %/brix
glycerol in the fermentation media ([2]; nisin Z 1.58 μg/g (tube Z4)): 0.337 %/brix
lactic acid in the fermentation media ([2]; nisin Z 1.58 μg/g (tube Z4)): 5.081 %/brix
maltose in the fermentation media ([2]; nisin Z 1.58 μg/g (tube Z4)): 1.007 %/brix
acetic acid in the fermentation media ([2]; nisin Z 1.58 μg/g (tube Z4)): 8.247 %/brix
Maltotriose in the fermentation media ([2]; nisin Z 3.19 μg/g (tube Z5)): 0.311 %/brix
ethanol in the fermentation media ([2]; nisin Z 3.19 μg/g (tube Z5)): 0.067 %/brix
formic acid in the fermentation media ([2]; nisin Z 3.19 μg/g (tube Z5)): 0.281 %/brix
fructose in the fermentation media ([2]; nisin Z 3.19 μg/g (tube Z5)): 0.000 %/brix
glucose in the fermentation media ([2]; nisin Z 3.19 μg/g (tube Z5)): 24.698 %/brix
glycerol in the fermentation media ([2]; nisin Z 3.19 μg/g (tube Z5)): 0.321 %/brix
lactic acid in the fermentation media ([2]; nisin Z 3.19 μg/g (tube Z5)): 2.995 %/brix
maltose in the fermentation media ([2]; nisin Z 3.19 μg/g (tube Z5)): 0.750 %/brix
acetic acid in the fermentation media ([2]; nisin Z 3.19 μg/g (tube Z5)): 8.026 %/brix
Maltotriose in the fermentation media ([2]; nisin Z 6.31 μg/g (tube Z6)): 0.247 %/brix
ethanol in the fermentation media ([2]; nisin Z 6.31 μg/g (tube Z6)): 0.059 %/brix
formic acid in the fermentation media ([2]; nisin Z 6.31 μg/g (tube Z6)): 0.267 %/brix
fructose in the fermentation media ([2]; nisin Z 6.31 μg/g (tube Z6)): 0.000 %/brix
glucose in the fermentation media ([2]; nisin Z 6.31 μg/g (tube Z6)): 25.353 %/brix
glycerol in the fermentation media ([2]; nisin Z 6.31 μg/g (tube Z6)): 0.320 %/brix
lactic acid in the fermentation media ([2]; nisin Z 6.31 μg/g (tube Z6)): 1.351 %/brix
maltose in the fermentation media ([2]; nisin Z 6.31 μg/g (tube Z6)): 0.726 %/brix
acetic acid in the fermentation media ([2]; nisin Z 6.31 μg/g (tube Z6)): 7.969 %/brix
Maltotriose in the fermentation media ([2]; nisin Z 9.54 μg/g (tube Z7)): 0.291 %/brix
ethanol in the fermentation media ([2]; nisin Z 9.54 μg/g (tube Z7)): 0.065 %/brix
formic acid in the fermentation media ([2]; nisin Z 9.54 μg/g (tube Z7)): 0.263 %/brix
fructose in the fermentation media ([2]; nisin Z 9.54 μg/g (tube Z7)): 0.000 %/brix
glucose in the fermentation media ([2]; nisin Z 9.54 μg/g (tube Z7)): 25.501 %/brix
glycerol in the fermentation media ([2]; nisin Z 9.54 μg/g (tube Z7)): 0.335 %/brix
lactic acid in the fermentation media ([2]; nisin Z 9.54 μg/g (tube Z7)): 1.431 %/brix
maltose in the fermentation media ([2]; nisin Z 9.54 μg/g (tube Z7)): 0.895 %/brix
acetic acid in the fermentation media ([2]; nisin Z 9.54 μg/g (tube Z7)): 8.026 %/brix
Maltotriose in the fermentation media ([2]; nisin Z 12.61 μg/g (tube Z8)): 0.318 %/brix
ethanol in the fermentation media ([2]; nisin Z 12.61 μg/g (tube Z8)): 0.148 %/brix
formic acid in the fermentation media ([2]; nisin Z 12.61 μg/g (tube Z8)): 0.299 %/brix
fructose in the fermentation media ([2]; nisin Z 12.61 μg/g (tube Z8)): 0.000 %/brix
glucose in the fermentation media ([2]; nisin Z 12.61 μg/g (tube Z8)): 25.740 %/brix
glycerol in the fermentation media ([2]; nisin Z 12.61 μg/g (tube Z8)): 0.346 %/brix
lactic acid in the fermentation media ([2]; nisin Z 12.61 μg/g (tube Z8)): 1.652 %/brix
maltose in the fermentation media ([2]; nisin Z 12.61 μg/g (tube Z8)): 0.876 %/brix
acetic acid in the fermentation media ([2]; nisin Z 12.61 μg/g (tube Z8)): 8.261 %/brix
